Data set [1] concerns SARS-CoV-2. The experiment in a line: microbe, parasite or virus in culture. The settings on record: for IC50: Severe acute respiratory syndrome coronavirus 2, Vero C1008, SARS-CoV-2-induced cytopathic effect in Vero E6 cells; for Selectivity Index (SI): antiviral activity relative to cellular toxicity (CC50/IC50), Vero E6. The format is cell-based. On the technique in general: Damage to the host cells serves as the signal in cytopathic effect assays.

Data set [2] is described as follows: MTT cytotoxicity assay against normal cell line (Vero E6). Particulars: African green monkey, Vero E6 cells. Background: Tetrazolium dyes change colour on reduction, which living cells bring about.
In data set [3] the test system is SARS-CoV-2. On the set-up: method as in PMID 34214752. Particulars: cited from earlier work; for IC50: SARS-CoV-2 in Vero E6 cells, positive controls reported by the same laboratory.
Another data set is described as follows: in vitro. Particulars: African green monkey.
The subject of a further data set is Vero E6 cells. Particulars: positive controls reported by the same laboratory; cited from earlier work.

Where two headings read alike, the source gives them in different places.

By IC50 is commonly meant the concentration needed to halve the response being measured.

Turning to `Oc1cc(O)c2c(c1)O[C@H](c1ccc(O)c(O)c1)[C@@H](O)C2` [Catechin, (+)−catechin], in the data set on SARS-CoV-2 [1], the IC50 came to 58.55 ± 0.088 µM and the “Selectivity Index (SI)” value is 0.9. In data set [2], the CC50 came out at 52.76 ± 0.079 µM.

With `CCN(CC)CCCC(C)Nc1ccnc2cc(Cl)ccc12` (stereo not shown) [Chloroquine], the IC50 in the data set on SARS-CoV-2 [3] is 22.7 µM.

As for `O=C(O)c1cc(O)c(O)c(O)c1` [Gallic acid, 3,4,5-trihydroxybenzoic acid], in the data set with SARS-CoV-2 [1], the midpoint of inhibition, the IC50, lay at 96.41 ± 0.03 µM and the “Selectivity Index (SI)” value is listed as 4.6. For the same compound, the CC50 in the data set “in vitro” turned out to be 439.7 ± 0.065 µM.

As for `CCN(CCO)CCCC(C)Nc1ccnc2cc(Cl)ccc12` (stereo not shown) [Hydroxychloroquine], the 50% inhibitory concentration (IC50) with SARS-CoV-2 [3] was 32.8 µM. For the same compound, the “Selectivity Index (SI)” value in the data set with SARS-CoV-2 [3] (positive controls) was 10.85. Besides, in the data set with Vero E6 cells, the CC50 was 356 µM.

In the case of `COc1cc2ccc(=O)oc2cc1O` [Scopoletin, 7-hydroxy-6-methoxycoumarin], in the data set with SARS-CoV-2 [1], the IC50 turned out to be 17.8 ± 0.91 µM and the “Selectivity Index (SI)” value is on record as 14.22. Further, the CC50 in the data set “in vitro” stood at 253.1 ± 0.45 µM.

Consider `COc1c(O)cc2oc(=O)ccc2c1OC` [Umckalin, 7-hydroxy-5,6-dimethoxycoumarin], for which, in the data set on SARS-CoV-2 [1], half-maximal inhibition (IC50) was put at 311.6 ± 0.043 µM and the “Selectivity Index (SI)” value is listed as 0.5. The compound further yielded a CC50 in data set [2] of 164.1 ± 0.54 µM.

Source of the values: article PMC9610410, “Pelargonium sidoides Root Extract: Simultaneous HPLC Separation, Determination, and Validation of Selected Biomolecules and Evaluation of SARS-CoV-2 Inhibitory Activity” (Pharmaceuticals, 2022).
